{"source": "patent US6737383B1", "about": "“Herbicidal oxadiazolidines” (priority 1999, dated 2004)", "key": {"corn": {"test_system": "corn", "experiment": "Test B pre/postemergence corn", "type": "in vivo, Zea mays", "outline": "(§1)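 Herbicidal effect was estimated by eye on a ten-point control scale after plants spent twelve to sixteen days in a greenhouse following soil or foliar treatment. Foliar sprays targeted plants at one to four leaves; all doses were formulated in a non-phytotoxic solvent with surfactant.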"}, "giant foxtail": {"test_system": "giant foxtail", "experiment": "Test B pre/postemergence giant foxtail", "type": "in vivo, Setaria faberii", "outline": "as §1"}, "sugar beet": {"test_system": "sugar beet", "experiment": "Test B pre/postemergence sugar beet", "type": "in vivo, Beta vulgaris", "outline": "as §1"}, "bedstraw": {"test_system": "bedstraw", "experiment": "Test B pre/postemergence bedstraw", "type": "in vivo, Galium aparine", "outline": "as §1"}, "duck salad": {"test_system": "duck salad", "experiment": "Test B flood test duck salad", "type": "in vivo, Heteranthera limosa", "outline": "(§2)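 Read-out is a visual response score from 0 (no effect) to 10 (complete control), assigned by comparison with untreated controls. Treatment was applied at the 2-leaf stage, and plants stayed in the greenhouse for twelve to sixteen days before scoring.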"}, "velvetleaf": {"test_system": "velvetleaf", "experiment": "Test B pre/postemergence velvetleaf", "type": "in vivo, Abutilon theophrasti", "outline": "as §1"}, "rice": {"test_system": "rice", "experiment": "Test B flood test rice", "type": "in vivo, Oryza sativa", "outline": "as §2"}, "surinam grass": {"test_system": "surinam grass", "experiment": "Test B pre/postemergence surinam grass", "type": "in vivo, Brachiaria decumbens", "outline": "as §1"}, "cocklebur": {"test_system": "cocklebur", "experiment": "Test B pre/postemergence cocklebur", "type": "in vivo, Xanthium strumarium", "outline": "as §1"}, "bamyardgrass": {"test_system": "bamyardgrass", "experiment": "Test B flood test barnyardgrass", "type": "in vivo, Echinochloa crus-galli", "outline": "as §2"}, "purple nutsedge": {"test_system": "purple nutsedge", "experiment": "Test B pre/postemergence purple nutsedge", "type": "in vivo, Cyperus rotundus", "outline": "as §1"}, "morningglory": {"test_system": "morningglory", "experiment": "Test B pre/postemergence morningglory", "type": "in vivo, Ipomoea hederacea", "outline": "as §1"}, "blackgrass": {"test_system": "blackgrass", "experiment": "Test B pre/postemergence blackgrass", "type": "in vivo, Alopecurus myosuroides", "outline": "as §1"}, "rape": {"test_system": "rape", "experiment": "Test B pre/postemergence rape", "type": "in vivo, Brassica napus", "outline": "as §1"}, "pigweed": {"test_system": "pigweed", "experiment": "Test B pre/postemergence pigweed", "type": "in vivo, Amaranthus retroflexus", "outline": "as §1"}, "[1]": {"details": "Postemergence, Rate 62 g/ha, scale 0 to 10, 0 is no effect, 10 is complete control"}, "[2]": {"details": "Postemergence, Rate 125 g/ha, scale of 0 to 10 where 0 is no effect and 10 is complete control"}, "[3]": {"details": "Postemergence, Rate 250 g/ha, scale of 0 to 10, 0 is no effect, 10 is complete control"}, "[4]": {"details": "Postemergence, Rate 500 g/ha, scale of 0 to 10 where 0 is no effect and 10 is complete control"}, "[5]": {"details": "Preemergence, Rate 62 g/ha, scale 0 to 10 (0 no effect, 10 complete control)"}, "[6]": {"details": "Preemergence, Rate 125 g/ha, scale of 0 to 10 where 0 is no effect and 10 is complete control"}, "[7]": {"details": "Preemergence, Rate 500 g/ha, scale of 0 to 10 where 0 is no effect and 10 is complete control"}, "[8]": {"details": "Rate 62 g/ha, flood test species, Pre-emergence, visual evaluation after twelve to sixteen days"}, "[9]": {"details": "Rate 125 g/ha, under heading Pre-emergence, flood test species, visual evaluation after twelve to sixteen days"}, "[10]": {"details": "Rate 250 g/ha, Pre-emergence (flood test species), scale 0 to 10, 0 is no effect, 10 is complete control"}, "[11]": {"details": "Rate 500 g/ha, Pre-emergence section of Table B, 0 to 10 scale (0 no effect, 10 complete control)"}}}
{"smiles": "CCC(C)n1c(=O)on(C(=O)N(c2ccccc2)C(C)C)c1=O", "note": "(centres unmarked) [Compound 611]", "values": [{"measurement": "Plant response rating, Corn", "setting": "corn; [1]", "result": 0}, {"measurement": "Plant response rating, Corn", "setting": "corn; [2]", "result": 0}, {"measurement": "Corn plant response rating", "setting": "corn; [3]", "result": 4}, {"measurement": "Plant response rating, Corn", "setting": "corn; [4]", "result": 6}, {"measurement": "Corn plant response rating", "setting": "corn; [5]", "result": 2}, {"measurement": "Corn plant response rating", "setting": "corn; [6]", "result": 3}, {"measurement": "Corn plant response rating (0 to 10 scale)", "setting": "corn; Preemergence, Rate 250 g/ha", "result": 9}, {"measurement": "Plant response rating, Corn", "setting": "corn; [7]", "result": 9}, {"measurement": "Plant response rating, Giant foxtail", "setting": "giant foxtail; [1]", "result": 8}, {"measurement": "Plant response rating, Giant foxtail", "setting": "giant foxtail; [2]", "result": 8}, {"measurement": "Giant foxtail plant response rating", "setting": "giant foxtail; [3]", "result": 9}, {"measurement": "Plant response rating, Giant foxtail", "setting": "giant foxtail; [4]", "result": 9}, {"measurement": "Giant foxtail plant response rating", "setting": "giant foxtail; [5]", "result": 10}, {"measurement": "Giant foxtail plant response rating", "setting": "giant foxtail; [6]", "result": 10}, {"measurement": "Plant response rating, Giant foxtail", "setting": "giant foxtail; [7]", "result": 10}, {"measurement": "Plant response rating, Sugarbeets", "setting": "sugar beet; [1]", "result": 0}, {"measurement": "Plant response rating, Sugarbeets", "setting": "sugar beet; [2]", "result": 0}, {"measurement": "Sugarbeets plant response rating", "setting": "sugar beet; [3]", "result": 0}, {"measurement": "Plant response rating, Sugarbeets", "setting": "sugar beet; [4]", "result": 2}, {"measurement": "Sugarbeets plant response rating", "setting": "sugar beet; [5]", "result": 2}, {"measurement": "Sugarbeets plant response rating", "setting": "sugar beet; [6]", "result": 2}, {"measurement": "Plant response rating, Sugarbeets", "setting": "sugar beet; [7]", "result": 6}, {"measurement": "Bedstraw plant response rating", "setting": "bedstraw; [3]", "result": 6}, {"measurement": "Plant response rating, Bedstraw", "setting": "bedstraw; [4]", "result": 9}, {"measurement": "Bedstraw plant response rating", "setting": "bedstraw; [5]", "result": 1}, {"measurement": "Bedstraw plant response rating", "setting": "bedstraw; [6]", "result": 1}, {"measurement": "Bedstraw plant response rating", "setting": "bedstraw; [7]", "result": 10}, {"measurement": "Plant response rating, Ducksalad (0 to 10 scale, 0 is no effect, 10 is complete control)", "setting": "duck salad; [8]", "result": 0}, {"measurement": "Ducksalad plant response rating (0 to 10 scale, 0 is no effect, 10 is complete control)", "setting": "duck salad; [9]", "result": 0}, {"measurement": "Ducksalad plant response rating", "setting": "duck salad; [10]", "result": 0}, {"measurement": "Ducksalad plant response rating", "setting": "duck salad; [11]", "result": 1}, {"measurement": "Plant response rating, Velvetleaf", "setting": "velvetleaf; [1]", "result": 0}, {"measurement": "Plant response rating, Velvetleaf", "setting": "velvetleaf; [2]", "result": 3}, {"measurement": "Velvetleaf plant response rating", "setting": "velvetleaf; [3]", "result": 5}, {"measurement": "Plant response rating, Velvetleaf", "setting": "velvetleaf; [4]", "result": 5}, {"measurement": "Velvetleaf plant response rating", "setting": "velvetleaf; [5]", "result": 6}, {"measurement": "Velvetleaf plant response rating", "setting": "velvetleaf; [6]", "result": 6}, {"measurement": "Plant response rating, Velvetleaf", "setting": "velvetleaf; [7]", "result": 8}, {"measurement": "Plant response rating, Rice (0 to 10 scale, 0 is no effect, 10 is complete control)", "setting": "rice; [8]", "result": 0}, {"measurement": "Rice plant response rating (0 to 10 scale, 0 is no effect, 10 is complete control)", "setting": "rice; [9]", "result": 0}, {"measurement": "Rice plant response rating", "setting": "rice; [10]", "result": 0}, {"measurement": "Rice plant response rating", "setting": "rice; [11]", "result": 2}, {"measurement": "Plant response rating, B. signalgrass", "setting": "surinam grass; [1]", "result": 0}, {"measurement": "Plant response rating, B. signalgrass", "setting": "surinam grass; [2]", "result": 3}, {"measurement": "B. signalgrass plant response rating", "setting": "surinam grass; [3]", "result": 7}, {"measurement": "Plant response rating, B. signalgrass", "setting": "surinam grass; [4]", "result": 8}, {"measurement": "B. signalgrass plant response rating", "setting": "surinam grass; [5]", "result": 7}, {"measurement": "B. signalgrass plant response rating", "setting": "surinam grass; [6]", "result": 7}, {"measurement": "B. signalgrass plant response rating (0 to 10 scale, 0 is no effect, 10 is complete control)", "setting": "surinam grass; Preemergence, Rate 250 g/ha", "result": 10}, {"measurement": "B. signalgrass plant response rating", "setting": "surinam grass; [7]", "result": 10}, {"measurement": "Plant response rating, Cocklebur", "setting": "cocklebur; [1]", "result": 0}, {"measurement": "Plant response rating, Cocklebur", "setting": "cocklebur; [2]", "result": 2}, {"measurement": "Cocklebur plant response rating", "setting": "cocklebur; [3]", "result": 2}, {"measurement": "Plant response rating, Cocklebur", "setting": "cocklebur; [4]", "result": 3}, {"measurement": "Cocklebur plant response rating", "setting": "cocklebur; [5]", "result": 0}, {"measurement": "Cocklebur plant response rating", "setting": "cocklebur; [6]", "result": 0}, {"measurement": "Cocklebur plant response rating (0 to 10 scale)", "setting": "cocklebur; Preemergence, Rate 250 g/ha", "result": 0}, {"measurement": "Plant response rating, Cocklebur", "setting": "cocklebur; [7]", "result": 1}, {"measurement": "Plant response rating, Barnyardgrass (0 to 10 scale, 0 is no effect, 10 is complete control)", "setting": "bamyardgrass; [8]", "result": 0}, {"measurement": "Barnyardgrass plant response rating (0 to 10 scale, 0 is no effect, 10 is complete control)", "setting": "bamyardgrass; [9]", "result": 0}, {"measurement": "Barnyardgrass plant response rating", "setting": "bamyardgrass; [10]", "result": 0}, {"measurement": "Barnyardgrass plant response rating", "setting": "bamyardgrass; [11]", "result": 5}, {"measurement": "Plant response rating, Nutsedge", "setting": "purple nutsedge; [1]", "result": 0}, {"measurement": "Plant response rating, Nutsedge", "setting": "purple nutsedge; [2]", "result": 0}, {"measurement": "Nutsedge plant response rating", "setting": "purple nutsedge; [3]", "result": 3}, {"measurement": "Plant response rating, Nutsedge", "setting": "purple nutsedge; [4]", "result": 3}, {"measurement": "Nutsedge plant response rating", "setting": "purple nutsedge; [5]", "result": 0}, {"measurement": "Nutsedge plant response rating", "setting": "purple nutsedge; [6]", "result": 0}, {"measurement": "Plant response rating, Nutsedge", "setting": "purple nutsedge; [7]", "result": 2}, {"measurement": "Plant response rating, Morningglory", "setting": "morningglory; [1]", "result": 7}, {"measurement": "Plant response rating, Morningglory", "setting": "morningglory; [2]", "result": 8}, {"measurement": "Morningglory plant response rating", "setting": "morningglory; [3]", "result": 8}, {"measurement": "Plant response rating, Morningglory", "setting": "morningglory; [4]", "result": 8}, {"measurement": "Morningglory plant response rating", "setting": "morningglory; [5]", "result": 0}, {"measurement": "Morningglory plant response rating", "setting": "morningglory; [6]", "result": 0}, {"measurement": "Plant response rating, Morningglory", "setting": "morningglory; [7]", "result": 6}, {"measurement": "Plant response rating, Blackgrass", "setting": "blackgrass; [1]", "result": 7}, {"measurement": "Plant response rating, Blackgrass", "setting": "blackgrass; [2]", "result": 9}, {"measurement": "Blackgrass plant response rating", "setting": "blackgrass; [3]", "result": 9}, {"measurement": "Plant response rating, Blackgrass", "setting": "blackgrass; [4]", "result": 9}, {"measurement": "Blackgrass plant response rating", "setting": "blackgrass; [5]", "result": 9}, {"measurement": "Blackgrass plant response rating", "setting": "blackgrass; [6]", "result": 9}, {"measurement": "Blackgrass plant response rating (0 to 10 scale)", "setting": "blackgrass; Preemergence, Rate 250 g/ha", "result": 10}, {"measurement": "Blackgrass plant response rating", "setting": "blackgrass; [7]", "result": 10}, {"measurement": "Plant response rating, Rape", "setting": "rape; [1]", "result": 0}, {"measurement": "Plant response rating, Rape", "setting": "rape; [2]", "result": 0}, {"measurement": "Rape plant response rating", "setting": "rape; [3]", "result": 2}, {"measurement": "Plant response rating, Rape", "setting": "rape; [4]", "result": 3}, {"measurement": "Rape plant response rating", "setting": "rape; [5]", "result": 3}, {"measurement": "Rape plant response rating", "setting": "rape; [6]", "result": 3}, {"measurement": "Plant response rating, Rape", "setting": "rape; [7]", "result": 10}, {"measurement": "Plant response rating, Redroot pigweed", "setting": "pigweed; [1]", "result": 0}, {"measurement": "Plant response rating, Redroot pigweed", "setting": "pigweed; [2]", "result": 2}, {"measurement": "Redroot pigweed plant response rating", "setting": "pigweed; [3]", "result": 3}, {"measurement": "Plant response rating, Redroot pigweed", "setting": "pigweed; [4]", "result": 8}, {"measurement": "Redroot pigweed plant response rating", "setting": "pigweed; [5]", "result": 6}, {"measurement": "Redroot pigweed plant response rating", "setting": "pigweed; [6]", "result": 8}, {"measurement": "Plant response rating, Redroot pigweed", "setting": "pigweed; [7]", "result": 10}]}
